Assay [1] concerns Echis leucogaster venom. Briefly: Thrombelastography in human plasma of venom procoagulant activity after isolated exposure of venom to compounds. The class given is biochemical. How it is done:
Thrombelastographic analyses. The volumes of subsequently described plasmatic and other additives summed to a final volume of 360 μl. Samples were composed of 320 μl of plasma; 16.4 μl of PBS, 20 μl of 200 mM CaCl2), and 3.6 μl of PBS or venom mixture, which were pipetted into a disposable cup in a Thrombelastograph® hemostasis system (Model 5000, Haemonetics Inc., Braintree, MA, USA) at 37° C., and then rapidly mixed by moving the cup up against and then away from the plastic pin five times. The following viscoelastic parameters described previously (see, Nielsen V G (2019) J Thromb Thrombolysis 47, 73-79; Gessner G, et al., (2017) Eur J Pharmacol 815, 33-41; Nielsen V G, Wagner M T, Frank N (2020) Int J Mol Sci 21, 2082; Lazić D, Arsenijević A, Puchta R, Bugarčić ŽD, Rilak A (2016) Dalton Trans 45, 4633; Hanif M, et al., (2017) ChemPlusChem 82, 841-847) were measured: time to maximum rate of thrombus generation (TMRTG): this is the time interval (minutes) observed prior to maximum speed of clot growth; maximum rate of thrombus generation (MRTG): this is the maximum velocity of clot growth observed (dynes/cm^2/second); and total thrombus generation (TTG, dynes/cm^2), the final viscoelastic resistance observed after clot formation.
E. leucogaster. This venom was exposed to 0 or 100 μM CORM-2 in the presence of 0 or 100 μM RuCl3 in PBS for at least 5 minutes at room temperature prior to placement into plasma followed immediately with commencement of thrombelastographic analysis. The final concentration of this venom in plasma was 1 μg/ml.
Given the aforementioned, the experimental conditions utilized were: 1) V condition—venom in PBS; 2) Ru(II) condition—venom exposed to CORM-2; 3) Ru(III) condition—venom exposed to RuCl3; 4) Ru(II+III) condition—venom exposed to CORM-2 and RuCl3 simultaneously. After the 5 minute period at room temperature, 3.6 μl of one of these solutions was added to the plasma sample in the plastic thrombelastograph cup.
(§1) All venom solutions without or with chemical additions in isolation were added as a 1% addition to the plasma mix used in our thrombelastographic system (see, Nielsen, V. G.; et al., Biometals 2016, 29, 913-919; Nielsen, V. G.; Losada, P. A. Basic Clin. Pharmacol. Toxicol. 2017, 120, 207-212; Nielsen, V. G.; Frank, N. J. Thromb. Thrombolysis 2019, 47, 533-539; Nielsen, V. G.; Bazzell, C. M. J. Thromb. Thrombolysis 2017, 43, 203-208; Nielsen, V. G.; Matika, R. W. Hum. Exp. Toxicol. 2017, 36, 727-733; Nielsen, V. G.; et al., Toxins 2018, 10, 322; Nielsen, V. G.; et al., Biometals 2018, 31, 51-59; Nielsen, V. G.; Frank, N. et al., Biometals 2018, 31, 951-959; Nielsen, V. G.; et al., Toxins 2019, 11, 94; Nielsen, V. G.; Frank, N. Hum Exp. Toxicol. 2019, 38, 216-226; Nielsen, V. G. J. Thromb. Thrombolysis 2019, 48, 256-262; Nielsen, V. G.; et al., Blood Coagul. Fibrinolysis 2019, 30, 379-384; Nielsen, V. G. J. Thromb. Thrombolysis 2019, 47, 73-79; Gessner, G.; et al., Eur. J. Pharmacol. 2017, 815, 33-41). […] The thrombelastographic model describes coagulation kinetics with the following three variables: time to maximum thrombus generation (TMRTG, minutes—a measure of time to onset of coagulation), maximum rate of thrombus generation (MRTG, dynes/cm^2/s—a measure of the velocity of clot growth) and total thrombus generation (TTG, dynes/cm^2—a measure of clot strength).

Assay [2] concerns Atheris nitschei venom. Described as above. The class given is biochemical. The conditions noted are these: venom 1 μg/mL in plasma. How it is done: as §1
The volumes of subsequently described plasmatic and other additives summed to a final volume of 360 μL. Samples were composed of 320 μL of plasma; 16.4 μL of PBS, 20 μL of 200 mM CaCl2), and 3.6 μL of PBS, RuCl3, or venom solution mixture, which were pipetted into a disposable cup in a Thrombelastograph® hemostasis system (Model 5000, Haemonetics Inc., Braintree, MA, USA) at 37° C., and then rapidly mixed by moving the cup up against and then away from the plastic pin five times. The PBS, RuCl3, or venom solution mixtures was always the last constituent added prior to mixing and data collection. The following viscoelastic parameters described previously (see, Nielsen, V. G.; et al., Biometals 2016, 29, 913-919; Nielsen, V. G.; Losada, P. A. Basic Clin. Pharmacol. Toxicol. 2017, 120, 207-212; Nielsen, V. G.; Frank, N. J. Thromb. Thrombolysis 2019, 47, 533-539; Nielsen, V. G.; Bazzell, C. M. J. Thromb. Thrombolysis 2017, 43, 203-208; Nielsen, V. G.; Matika, R. W. Hum. Exp. Toxicol. 2017, 36, 727-733; Nielsen, V. G.; et al., Toxins 2018, 10, 322; Nielsen, V. G.; et al., Biometals 2018, 31, 51-59; Nielsen, V. G.; Frank, N. et al., Biometals 2018, 31, 951-959; Nielsen, V. G.; et al., Toxins 2019, 11, 94; Nielsen, V. G.; Frank, N. Hum Exp. Toxicol. 2019, 38, 216-226; Nielsen, V. G. J. Thromb. Thrombolysis 2019, 48, 256-262; Nielsen, V. G.; et al., Blood Coagul. Fibrinolysis 2019, 30, 379-384; Nielsen, V. G. J. Thromb. Thrombolysis 2019, 47, 73-79) were measured: time to maximum rate of thrombus generation (TMRTG): this is the time interval (minutes) observed prior to maximum speed of clot growth; maximum rate of thrombus generation (MRTG): this is the maximum velocity of clot growth observed (dynes/cm^2/s); and total thrombus generation (TTG, dynes/cm^2), the final viscoelastic resistance observed after clot formation. Data were collected until the clot strength reached its final plateau (maximum amplitude) that was stable for 3 min.

The test system of assay [3] is Atheris nitschei venom. The conditions noted are these: previously characterized by this laboratory; cited from earlier work.
[4] abbreviates: 100 μM CORM-2, 100 μM RuCl3 or both, venom 1 μg/ml in plasma.
Setting [5] is: venom exposed 5 min to 100 μM RuCl3 in PBS, venom 1 μg/mL in plasma (Example III).
Setting [6] is: venom exposed ≥5 min in PBS to 100 μM CORM-2, 100 μM RuCl3 or both, venom 1 μg/ml in plasma.
[7] abbreviates: venom exposed 5 min to 100 μM RuCl3 in PBS.

Each structure is given as a SMILES string. “Also recorded” adds a separate entry of the source.

Turning to `[Cl][Ru]([Cl])[Cl]` [RuCl3, ruthenium(III) chloride], the “maximum rate of thrombus generation (MRTG)” value in assay [1] (setting [4]) is listed as “decrease”; in assay [1] (setting [5]) it was “decrease”; in assay [2] (setting [7]) it was “significant increase”. The “time to maximum rate of thrombus generation (TMRTG)” value in assay [1] (setting [4]) is given as “increase”; in assay [1] (setting [5]), “significant increase”; in assay [2] (setting [7]), “very diminutive increase”. Moreover, the “total thrombus generation (TTG)” value in assay [1] (setting [5]) is “decrease”; in assay [2] (setting [7]) it was “significant increase”. Further, the “procoagulant activity of venom” value in assay [1] (setting [6]) is “significantly diminished”.

With `[C-]#[O+].[C-]#[O+].[C-]#[O+].[C-]#[O+].[C-]#[O+].[C-]#[O+].[Cl][Ru][Cl].[Cl][Ru][Cl]` [CORM-2, tricarbonyldichlororuthenium(II) dimer], the “maximum rate of thrombus generation (MRTG)” value in assay [1] (setting [4]) is “decrease”. Besides, the “time to maximum rate of thrombus generation (TMRTG)” value in assay [1] (setting [4]) is listed as “increased; also recorded: significant increase”. Moreover, the “procoagulant activity of venom” value in assay [1] (venom exposed 5 min to 100 μM CORM-2 in PBS, venom 1 μg/mL in plasma (Example III)) is reported as “significantly attenuated”; in assay [1] (setting [6]), “significantly decreased; also recorded: procoagulant activity inhibition”; in assay [2] (venom exposed 5 min to 100 μM CORM-2 in 5% human albumin), “uninhibited”; in assay [2] (venom exposed 5 min to 100 μM CORM-2 in PBS), “significantly attenuated”. The “CORM-2/ iRM Inhibition” value in assay [3] was “Yes”.
